Data on three compounds can be found in article PMC8639500, “SSTP1, a Host Defense Peptide, Exploits the Immunomodulatory IL6 Pathway to Induce Apoptosis in Cancer Cells” (Frontiers in Immunology, 2021).

SMILES strings stand for the structures. Residues, ends and D or L forms follow the SMILES beside them.

Assay type in all cases: cell-based, human
For data set [1], the system named is HSC-4 cells. Kind of data set: MTT growth inhibition assay, HSC-4 cells. The note with it: 48 h. As to the method: (§1) Concentration- and time-dependent effects on cell growth inhibition were measured using the MTT [3-(4,5-dimethylthiazol-2-yl)−2,5-diphenyltetrazolium bromide] assay. 5000 cells/well were seeded in 96-well plate and were treated with peptides for 48h. Cells were incubated with MTT (1.25 mg/ml) for 2 hours at 37°C. The blue formazan crystals were solubilized in isopropanol and read at 595 nm.
IC50 value for HSC-4 cells and MDA-MB-231cells were calculated with Dose-response model. Analysis of dose-response data is made available through the ‘drc’ package in R environment for statistical computing. […] The statistical significance between two groups was analyzed using Students paired two-tailed t-test.
Figure 1 SSTP1 induces apoptosis in oral cancer cells (A) HSC-4 cells were treated with peptides SSTP1 and SSTP2 at different concentrations in 0.5% DMEM for 48 h, and MTT assay was performed to calculate % growth inhibition. […] (C)The quantified populations are represented in the graph. […] (D) The HSC-4 cells treated with 10 μM SSTP1 or SSTP2 for indicated time intervals were used for western blot analyses (E) Densitometric analysis was done for the bands, and fold change based on 0min was calculated. […]

The test system of data set [2] is HSC-4 cells. Nature of the data set: MTT growth inhibition by SSTP1 with or without IL6 pathway inhibitors. The note with it: 4h SSTP1 (10 μM), pre-treatment LMT-28 60 μM 1.5 h, Anti-IL6Rα 10µg/ml 2h, SC144 40 μM 2h. As to the method:
as §1
Figure 8 SSTP1-induced pcJUN activation depends on JNK and on gp130 and IL6Rα. (A) HSC-4 cells treated with SSTP1 (30 minute) and the indicated inhibitors were used for western blot analysis of the indicated molecules (B) Densitometric analysis was done for the bands of (a) and relative phosphorylation based on untreated is plotted. (C) The cells treated with SSTP1 (30 minutes) and IL6Rα antibody or SC144 were used for western blot analysis of the indicated molecules. (D) Densitometric analysis was done for the bands of (C) and relative phosphorylation based on untreated is plotted. (E) Growth inhibition analyzed by MTT assay after 4h treatment with SSTP1(10 μM) with or without the inhibitors. LMT-28 (60 μM). For all the experiments SSTP1 (10 μM) was used with or without LMT-28 (60 μM), Ruxolitinib (30 μM) or SP600125 (20 μM), Anti-IL6Rα (10µg/ml) or SC144 (40 μM). […]

For a further data set, the system named is MDA-MB-231 cells. The note with it: 48 h. As to the method: as §1
IC50 value for HSC-4 cells and MDA-MB-231cells were calculated with Dose-response model. Analysis of dose-response data is made available through the ‘drc’ package in R environment for statistical computing. The “drm” function in the package “drc” is a general model fitting function for analysis of concentration/dose/time-effect/response data and the four parameter a log-logistic model was fitted for estimating the slope, lower, upper and IC50 values. […] The statistical significance between two groups was analyzed using Students paired two-tailed t-test.
Figure 10 Sensitivity of cancer cells to SSTP1 depends on the level of IL6Rα. […] (C) Growth inhibition analyzed by MTT assay using 10 μM SSTP1 treated for 48h. (D) Growth inhibitory curve of SSTP1 for MDA-MB-231 cells and HEK-293 cells analyzed after 48h treatment with SSTP1 and Hemolysis induced by SSTP1 on human RBC. […] (F) The blots were quantified using ImageJ, and the graphs were plotted. *p < .05, **p < .01, ***p < .001.

Regarding `CC[C@H](C)[C@H](NC(=O)[C@H](CCCNC(=N)N)NC(=O)[C@H](CCCNC(=N)N)NC(=O)[C@@H]1CCCN1C(=O)[C@H](CC(C)C)NC(=O)[C@@H](N)Cc1ccccc1)C(=O)N[C@@H](CO)C(=O)N[C@@H](C)C(=O)N[C@@H](CCCNC(=N)N)C(=O)N[C@H](C(=O)N[C@@H](CO)C(=O)N[C@@H](CC(C)C)C(=O)N[C@@H](Cc1ccccc1)C(=O)N1CCC[C@H]1C(=O)N[C@@H](CCCCN)C(=O)N[C@@H](CCCNC(=N)N)C(=O)NCC(=O)N[C@@H](CCCCN)C(N)=O)[C@@H](C)O` [SSTP2] (H-FLPRRISARTSLFPKRGK-NH2), in the data set on HSC-4 cells [1] (HSC-4 cells, MTT), the “cytotoxicity (growth inhibition) in words” value is “negligible cytotoxicity”.

As to `O=C(NNc1nc2cc(F)ccc2n2cccc12)c1cnccn1` [SC144], the “effect on SSTP1-induced growth inhibition” value in the data set with HSC-4 cells [2] was “significantly inhibited”.

As to `CC[C@H](C)[C@H](NC(=O)[C@H](CC(C)C)NC(=O)[C@H](CC(C)C)NC(=O)[C@@H]1CCCN1C(=O)[C@H](CC(C)C)NC(=O)[C@@H](N)Cc1ccccc1)C(=O)N[C@@H](CO)C(=O)N[C@@H](C)C(=O)N[C@@H](CC(C)C)C(=O)N[C@H](C(=O)N[C@@H](CO)C(=O)N[C@@H](CC(C)C)C(=O)N[C@@H](Cc1ccccc1)C(=O)N1CCC[C@H]1C(=O)N[C@@H](CCCCN)C(=O)N[C@@H](CC(C)C)C(=O)NCC(=O)N[C@@H](CCCCN)C(=O)O)[C@@H](C)O` [SSTP1] (H-FLPLLISALTSLFPKLGK-OH), the IC50 with HSC-4 cells [1] turned out to be 10.2 µM; in the data set with MDA-MB-231 cells, 4.5 µM.
